Values after ≈ are worked out from the molar mass of the structure shown. Like-named read-outs stand apart in the source and are kept apart here.
Experiments:
A2780 (ovarian cancer) = test: cells; type: cell-based; conditions: CCK8, 48 h; for IC50: Homo sapiens, A2780
Description: (§1) Different types of cells were cultured with complete media (RPMI1640 (DMEM high sugar medium)+10% fetal bovine serum+1XP/S+sodium pyruvate 1 mM solution) in an incubator at 37° C. and 5% CO2 until the cells grew to a sufficient number, and the cells were collected, centrifuged at 1,000 g for 5 min, resuspended with an appropriate volume of a 10% RMPI1640 (DMEM high sugar medium) medium and counted. In a 96-well culture plate, 100 μL of cell culture fluid containing different concentrations of drugs was added, control wells (0.1% DMSO) with only corresponding drug solvents without drugs, as well as blank wells (Blank) with only the medium but without cells were set, and three parallel wells were set in each group. After that, the cells after cell counting were inoculated onto 96-well culture plates, with 100 μL of cell suspension per well, and an inoculation concentration of the cells was 5,000 cells (100 μL)/well. The plates were then cultured in a CO2 (5%) incubator at 37° C. for 48 h. After 48 h, 10 μL of a cell proliferation staining reagent (CCK8) was added to each well, the plates were incubated in a cell incubator for around 2 h, and an absorbance at 450 nm was detected.
(§2) Cell survival rates and median inhibitory concentrations of the drugs on the cells were calculated.
as §1, with “serum+1×P/S+sodium” for “serum+1XP/S+sodium”, “adjusted to an appropriate density.” for “counted.”
(§3) Cell survival rates and median inhibitory concentrations (IC50) of the drugs on the cells were calculated.

SJSA-1 (sarcoma tissue) = test: cells; type: cell-based; conditions: CCK8, 48 h; for IC50: Homo sapiens, SJSA-1
Description: as §1, §2
as §1, with “serum+1×P/S+sodium” for “serum+1XP/S+sodium”, “adjusted to an appropriate density.” for “counted.”
as §3

[1] = test system: A549 (non-small cell lung cancer); test: cells; type: cell-based; conditions: CCK8, 48 h; for IC50: Homo sapiens, A549
Description: as §1, §2
as §1, with “serum+1×P/S+sodium” for “serum+1XP/S+sodium”, “adjusted to an appropriate density.” for “counted.”
as §3

[2] = test system: SKBR3 (breast cancer tissue); test: cells; type: cell-based; conditions: CCK8, 48 h; for IC50: Homo sapiens, SK-BR-3
Description: as §1, §2
as §1, with “serum+1×P/S+sodium” for “serum+1XP/S+sodium”, “adjusted to an appropriate density.” for “counted.”
as §3

[3] = test system: colo320 (colorectal cancer tissue); test: cells; type: cell-based; conditions: CCK8, 48 h, Table 6
Description: as §1, with “serum+1×P/S+sodium” for “serum+1XP/S+sodium”, “adjusted to an appropriate density.” for “counted.”
as §3

[4] = test system: sarcoma SJSA-1 tumor model; conditions: 5 mg/kg once a week for three weeks
Description: Test objective: To investigate the antitumor efficacy of the above compounds in an animal tumor model of sarcoma SJSA-1.
(§4) Test drug: Polypeptide conjugate, Irinotecan, Belotecan and normal saline control group.
(§5) Test animals: 6-8 weeks old BALB/c mice, all female.
(§6) SJSA-1 cells were purchased from ATCC and cultured in a DMEM medium containing 10% fetal bovine serum at 37° C. in 5% CO2. Passaging was performed every three days, and cells within 15 generations were used. 2×10^7 corresponding cells were injected into right chests of nude mice subcutaneously. After a volume of the tumors reached at least 100 mm^3, the mice were grouped randomly, with three mice in each group. Then treatment was started, and the day when the treatment was started was the first day. […] The control group was administered with normal saline. Administration was performed once a week for three weeks.
as §6

[5] = MTD determination in mice (Examples 27, 36, 44); type: in vivo; conditions: mice, monitored for 14 d
Description: Test animals: 6-8 weeks old mice, all female; mice were grouped randomly, with six mice in each group, administered with drugs at different concentration gradients separately and monitored for 14 d. A mouse was euthanized at a loss of 20% of its initial weight and deemed to have died of poisoning.

[6] = test system: colo320 colorectal cancer tumor model
Description: Test objective: To investigate the antitumor efficacy of the above compounds in an animal tumor model of colo320 colorectal cancer.
as §4, §5
as §6, with “Passaging” for “SJSA-1 cells were purchased from ATCC and cultured in a DMEM medium containing 10% fetal bovine serum at 37° C. in 5% CO2. Passaging”, “used. 7.5×10^6” for “used. 2×10^7”, “least 120” for “least 100”, “for four” for “for three”

[7] = 5 mg/kg once a week for four weeks, Table 3
[8] = 5 mg/kg once a week for four weeks, Table 8
[9] = Table 13 (Example 42), dose 5 mg/kg, once a week for four weeks, BALB/c mice
[10] = Table 14 (Example 43), dose 5 mg/kg, once a week for four weeks, BALB/c mice

Row | SMILES | Mouse weight (%) ([4]; Table 2) | SJSA-1 (sarcoma tissue) mean tumor volume (mm^3) ([4]; Table 2) | SJSA-1 (sarcoma) Growth rate (%) ([4]; Table 2) | Mouse weight (%) ([4]; Table 7) | SJSA-1 (sarcoma tissue) growth rate (%) ([4]; Table 7) | SJSA-1 (sarcoma tissue) mean tumor volume (mm^3) ([4]; Table 7) | Mouse weight (%) [6, 7] | colo320 (colorectal cancer cell) growth rate (%) [6, 7] | colo320 (colorectal cancer cell) mean tumor volume (mm^3) [6, 7] | Mouse weight (%) [6, 8] | colo320 (colorectal cancer cell) growth rate (%) [6, 8] | colo320 (colorectal cancer cell) mean tumor volume (mm^3) [6, 8] | IC50 A2780 (ovarian cancer) (A2780 (ovarian cancer); Table 1) | IC50 Ovarian cancer tissue (A2780) (A2780 (ovarian cancer); Table 6) | IC50 SJSA-1 (sarcoma tissue) (SJSA-1 (sarcoma tissue); Table 1) | IC50 Sarcoma tissue (SJSA-1) (SJSA-1 (sarcoma tissue); Table 6) | IC50 A549 (non-small cell lung cancer) ([1]; Table 1) | IC50 Non-small cell lung cancer tissue (A549) ([1]; Table 6) | IC50 SKBR3 (breast cancer tissue) ([2]; Table 1) | IC50 Breast cancer tissue (SKBR3) ([2]; Table 6) | also measured
1 | CC[C@@]1(O)C(=O)OCc2c1cc1n(c2=O)Cc2c-1nc1ccccc1c2CCNC(C)C [Belotecan, reference compound] | −9% | 1253.2 mm^3 | 1084.38% | −9% | 1084.38% | 1253.2 mm^3 | −9% | 869.93% | 963.5 mm^3 | −9% | 869.93% | 963.5 mm^3 |  |  |  |  |  |  |  |  | IC50 (A2780 (ovarian cancer); Table 1, read-out: IC50 A2780 (ovarian cancer)): 0.0044 µg/mL (≈ 0.0101 µM); IC50 (A2780 (ovarian cancer); Table 6, read-out: IC50 Ovarian cancer tissue (A2780)): 0.0044 µg/mL (≈ 0.0101 µM); IC50 (SJSA-1 (sarcoma tissue); Table 1, read-out: IC50 SJSA-1 (sarcoma tissue)): 0.0021 µg/mL (≈ 0.00484 µM); IC50 (SJSA-1 (sarcoma tissue); Table 6, read-out: IC50 Sarcoma tissue (SJSA-1)): 0.0021 µg/mL (≈ 0.00484 µM); IC50 ([1]; Table 1, read-out: IC50 A549 (non-small cell lung cancer)): 0.0066 µg/mL (≈ 0.0152 µM); IC50 ([1]; Table 6, read-out: IC50 Non-small cell lung cancer tissue (A549)): 0.0066 µg/mL (≈ 0.0152 µM); IC50 ([2]; Table 1, read-out: IC50 SKBR3 (breast cancer tissue)): 0.0098 µg/mL (≈ 0.0226 µM); IC50 ([2]; Table 6, read-out: IC50 Breast cancer tissue (SKBR3)): 0.0098 µg/mL (≈ 0.0226 µM); IC50 ([3]; Homo sapiens, COLO 320): 0.014 µg/mL (≈ 0.0323 µM); MTD ([5]; female, mouse, in vivo, Table 15 (Example 44), six per group, read-out: MTD): 15 mg/kg; MTD ([5]; female, mouse, in vivo, Table 4, read-out: MTD): 15 mg/kg; MTD ([5]; female, mouse, in vivo, Table 9, read-out: MTD): 15 mg/kg; Mouse weight (%) [6, 9]: −9%; colo320 (colorectal cancer cell) growth rate (%) [6, 9]: 869.93%; colo320 (colorectal cancer cell) mean tumor volume (mm^3) [6, 9]: 963.5 mm^3; Mouse weight (%) [6, 10]: −9%; colo320 (colorectal cancer cell) growth rate (%) [6, 10]: 869.93%; colo320 (colorectal cancer cell) mean tumor volume (mm^3) [6, 10]: 963.5 mm^3
2 | CC[C@@]1(O)C(=O)OCc2c1cc1n(c2=O)Cc2c-1nc1ccccc1c2CCNC [D1] | −6% | 1432 mm^3 | 1235.57% | −6% | 1235.57% | 1432 mm^3 | −7% | 1012.22% | 1121.1 mm^3 | −7% | 1012.22% | 1121.1 mm^3 | 0.018 µg/mL (≈ 0.0444 µM) | 0.018 µg/mL (≈ 0.0444 µM) | 0.028 µg/mL (≈ 0.0691 µM) | 0.028 µg/mL (≈ 0.0691 µM) | 0.027 µg/mL (≈ 0.0666 µM) | 0.027 µg/mL (≈ 0.0666 µM) | 0.050 µg/mL (≈ 0.123 µM) | 0.050 µg/mL (≈ 0.123 µM) | IC50 Colorectal cancer tissue (colo320) [3]: 0.040 µg/mL (≈ 0.0987 µM); MTD ([5]; Table 4): 25 mg/kg; MTD ([5]; Table 9): 25 mg/kg; Mouse weight (%) [6, 9]: −7%; colo320 (colorectal cancer cell) growth rate (%) [6, 9]: 1012.22%; colo320 (colorectal cancer cell) mean tumor volume (mm^3) [6, 9]: 1121.1 mm^3
3 | CC[C@@]1(O)C(=O)OCc2c1cc1n(c2=O)Cc2c-1nc1ccccc1c2CCNC1CCCC1 [D8] | +12% | 1497.5 mm^3 | 1295.77% | +12% | 1295.77% | 1497.5 mm^3 | −6% | 1082.65% | 1199.1 mm^3 | −6% | 1082.65% | 1199.1 mm^3 | 0.015 µg/mL (≈ 0.0326 µM) | 0.015 µg/mL (≈ 0.0326 µM) | 0.035 µg/mL (≈ 0.0762 µM) | 0.035 µg/mL (≈ 0.0762 µM) | 0.016 µg/mL (≈ 0.0348 µM) | 0.016 µg/mL (≈ 0.0348 µM) | 0.047 µg/mL (≈ 0.102 µM) | 0.047 µg/mL (≈ 0.102 µM) | IC50 Colorectal cancer tissue (colo320) [3]: 0.042 µg/mL (≈ 0.0914 µM); MTD ([5]; Table 4): 25 mg/kg; MTD ([5]; Table 9): 25 mg/kg
4 | CCCNCCc1c2c(nc3ccccc13)-c1cc3c(c(=O)n1C2)COC(=O)[C@]3(O)CC [D3] | −5% | 1378.4 mm^3 | 1192.71% | −5% | 1192.71% | 1378.4 mm^3 | +7% | 872.19% | 966 mm^3 | +7% | 872.19% | 966 mm^3 | 0.021 µg/mL (≈ 0.0484 µM) | 0.021 µg/mL (≈ 0.0484 µM) | 0.029 µg/mL (≈ 0.0669 µM) | 0.029 µg/mL (≈ 0.0669 µM) | 0.026 µg/mL (≈ 0.06 µM) | 0.026 µg/mL (≈ 0.06 µM) | 0.049 µg/mL (≈ 0.113 µM) | 0.049 µg/mL (≈ 0.113 µM) | IC50 Colorectal cancer tissue (colo320) [3]: 0.040 µg/mL (≈ 0.0923 µM); MTD ([5]; Table 4): 25 mg/kg; MTD ([5]; Table 9): 25 mg/kg
5 | CCCCNCCc1c2c(nc3ccccc13)-c1cc3c(c(=O)n1C2)COC(=O)[C@]3(O)CC [D4] | −7% | 1269.4 mm^3 | 1098.39% | −7% | 1098.39% | 1269.4 mm^3 | +5% | 945.77% | 1047.5 mm^3 | +5% | 945.77% | 1047.5 mm^3 | 0.029 µg/mL (≈ 0.0648 µM) | 0.029 µg/mL (≈ 0.0648 µM) | 0.054 µg/mL (≈ 0.121 µM) | 0.054 µg/mL (≈ 0.121 µM) | 0.043 µg/mL (≈ 0.0961 µM) | 0.043 µg/mL (≈ 0.0961 µM) | 0.076 µg/mL (≈ 0.17 µM) | 0.076 µg/mL (≈ 0.17 µM) | IC50 Colorectal cancer tissue (colo320) [3]: 0.078 µg/mL (≈ 0.174 µM); MTD ([5]; Table 4): 30 mg/kg; MTD ([5]; Table 9): 30 mg/kg

Source: patent publication US20250235545A1, “POLYPEPTIDE CONJUGATE AND USE THEREOF” (SHANGHAI CHIXI BIOMEDICAL TECHNOLOGY CO., LTD, priority 2024, published 2025)
